Data as given in paper PMC9655874, “Analysis of Volatile Secondary Metabolites in Ocimum basilicum Cell Suspensions: Inhibition, In Silico Molecular Docking, and an ADMET Analysis against Proteolytic Enzymes of Rhynchophorus ferrugineus” (Plants, 2022).
Converted amounts (≈) assume the structure as drawn.

Columns and labels:
[1] = molecular target: total proteases of R. ferrugineus midgut; assay: Total proteolytic enzyme activity of 4th instar midgut homogenate, azocasein (in vitro)
Protocol: (§4) The homogenate of R. ferrugineus 4th midgut instar larvae (lab strain) was assayed for total proteolytic enzyme activity using azocasein, as Darrag et al. [26], with modifications. Ten 4th midgut larval homogenates were carefully removed, incised, and then rinsed in a solution containing 0.9% NaCl before even being homogenized in a buffer (500 µL) containing 5 mM dithiothreitol (DTT), 0.1% (v/v) Triton X-100, and 50 mM N-2-hydroxyethyl piperazine-N′-2-ethane sulphonic acid (HEPS), and 8.0 pH. It was spun in a centrifuge (Sigma 3k30), and the remaining homogenates were from a preliminary phase for 30 min at 5000 rpm. Using the supernatants, the protein concentration and proteolytic enzyme activity were determined. […] Before each reaction experiment, 40-day-old methanolic extract of cell suspension, pure chemicals, and 10 μL of enzyme specimens were incubated for 10 min. The addition of the substrate initiated the reaction, which was allowed for 20 min in the case of leupeptin before being terminated 180 min later by adding 300 µL of cold tri-chloroacetic acid (TCA) (10%, v/v). Twenty minutes were spent centrifuging the mixture at 5000 rpm (Sigma 3k30). Overall, 10 µL of NaOH (10 N) was added to the supernatant, and the absorbance was measured using an ELISA plate reader at 450 nm to quantify the enzymes’ specific activity as OD450/mg protein/h.
(§5) An experiment that was set up free of potential inhibitors served as a control. An ELISA plate fast reader measured the enzymes’ absorption at various wavelengths. For each inhibitor, the control enzyme’s percentage activity was assessed for each enzyme. Four instars midgut larvae were treated with previous concentrations of extracts or compounds, assessed as previously mentioned, to measure the protease activity in vivo. Larvae were subjected to extract- and compound-treated leaf discs for 24 h.

[2] = molecular target: metalloprotease of R. ferrugineus midgut; assay: Metalloproteinase specific activity, CEGR substrate (in vitro); conditions: 4th instar midgut homogenate
Protocol: (§6) The ten midgut larvae from the fourth stage were neatly eliminated, dissected, and repeatedly washed with 0.9% NaCl solution. A 500 µL protease test solution, including 50 mM HEPS, 0.1% Triton X-100, and 5 mM DTT (pH 8.0), was utilized to homogenize the midgut instar. The homogenates were then centrifuged employing a Sigma 3k30 (cooling centrifuge) at 5000 rpm for 30 min to evaluate the supernatant’s enzyme activity and protein content. Before introducing CEGR (125 µL, 2% (w/v)), each experiment’s supernatant (10 µL) was incubated in an assay buffer (60 µL) at 37 °C for 20 min (pH 8). During a 10 min incubation period without a substrate, 10 µL enzyme samples were tested (20 min. for EDTA, EGTA, 1.10, Phenanthroline). After 180 min at 37 °C, 300 µL of cold TCA, 10% (v/v), was used to terminate the reaction. For the next 20 min, the mixture was spun (5000 rpm, Sigma 3K30). The absorbance was measured at 450 nm after mixing the supernatant with hydroxide solution (10 µL, 10 N) using an ELISA reader. An enzyme-free assay combination was utilized as a blank, and particular activity was evaluated utilizing the OD493 mg^−1 protein min^−1 and an enzyme-free blank specimen.
as §5

[3] = tested on: metalloprotease of R. ferrugineus midgut; assay: Metalloprotease activity in midgut of treated larvae (in vivo); conditions: larvae treated 24 h, midgut preparation
Protocol: as §6, §5

[4] = tested on: total proteases of R. ferrugineus midgut; assay: Total protease activity in midgut of treated larvae (in vivo); conditions: larvae treated 24 h, midgut preparation
Protocol: as §4, §5

R. ferrugineus adults = assay: whole plant or invertebrate; type: in vivo; conditions: Rhynchophorus ferrugineus, read-out: LC50 (µg/mL) 95% CF
Protocol: (§1) Cells were suspended in the methanolic extract at serially increasing concentrations for 40 days. To dilute the compounds, TritonX-100 (0.1%) was added to acetone after the chemicals were dissolved. Adults or larvae of R. ferrugineus were purchased. They were then cultured using long lengths of sugar cane stem. The extracts’ anti-larvae action was assessed by applying topically to larvae and keeping them at 4–5 °C for 5 min. Utilizing a manually controlled micro-applicator, each larva had extract injected into its dorsum in three separate 10 µL doses using a 50-ll micro-syringe from Hertfordshire, UK’s Burkard Manufacturing Co., Ltd. (MS-N50; Shizuoka, Japan’s Ito Corp.). Five larvae in a box with three replications were fed on portions of long sugarcane stem measuring 10 cm. […] The sugarcane stem’s ten-centimeter-long portions cut into equal longitudinal halves were used to measure the antifeedant activity against adults. Long sections of sugarcane stem with a surface area of approximately 32.2 cm^2 were dried in air at room temperature, assuming a dipping time of 10 s and an initial serial concentration of (10 mL). Each treated object remained in a plastic container. Each box included an additional pair (male and female). Each therapy was administered ten times. In total, 24-, 48-, 72-, and 96-h feeding observations were assessed.
(§2) Statistics and probit analysis were performed using SPSS 25.0, as mentioned by Finney. To sum up, all numerical predictions of toxicity variables and findings were presented as the mean ± SE. We regressed mortality and translated the resulting dosage to an LC50 value (µg/mL). […] Enzyme activity data were analyzed using an ANOVA. Means were separated using the SNK (Student–Newman–Keuls) test, and deviations at the p ˂ 0.05 level were considered noteworthy.

[5] = tested on: elastase of R. ferrugineus midgut; assay: Elastase activity in midgut of treated larvae (in vivo); set-up: species or system Rhynchophorus ferrugineus; conditions: larvae treated 24 h, midgut preparation
[6] = molecular target: elastase of R. ferrugineus midgut; assay: Serine proteinase specific activity, elastase (in vitro); type: biochemical, Rhynchophorus ferrugineus; conditions: 4th instar midgut homogenate
[7] = molecular target: trypsin proteinase of R. ferrugineus midgut; assay: Serine proteinase specific activity, trypsin (in vitro); conditions: 4th instar midgut homogenate
Protocol: (§7) We used a serine protease assay buffer and a modified version of the fast microplate method to analyze the serine proteinase’s specific activity in mixtures (150 µL) [26]. […] The sample (10 µL) was diluted using an assay buffer to 50 µL to determine the presence of trypsin proteinase, chymotrypsin proteinase, and elastase. Assay buffer was used to dilute stock substrates of BAρNA (100 mg/mL DMSO), both SAAPFρNA and SAAPLρNA (100 mg/mL DMF), to 1.0 mg/mL. To halt the reaction after 15 min of incubation at 37 °C, 50 µL of acetic acid (30%, v/v) was added. The intensity of the activity was measured using a 405 nm ELISA plate reader. A denaturation enzyme was used in place of an active enzyme in the experiment mixture. For three substrates (SAAPLρNA, BAρNA, and SAAPFρNA), activity levels of certain proteinases were assessed as OD mg^−1 protein min^−1.
as §5

[8] = tested on: R. ferrugineus 4th larvae; assay: Topical application (contact insecticide) to fourth instar larvae; type: in vivo, Rhynchophorus ferrugineus; conditions: for LD50 (µg/Larvae) 95% CF: 4th larvae, topical, 95% confidence limits in brackets; for LD50: larvae
Protocol: as §1, §2

[9] = tested on: gut proteases of R. ferrugineus fourth larval instar; assay: Specific protease inhibitors against gut proteases of fourth larval instar (in vitro); type: biochemical, Rhynchophorus ferrugineus; conditions: Figure S2, in vitro
Protocol: As a starting point (blank), an assessment combination not containing enzymes was utilized. TLCK (trypsin proteinase inhibitor), PMSF (general serine proteinase inhibitor), EDTA (EDTA-metalloproteinase inhibitor), iodoacetic acid (an iodoacetic acid-cysteine proteinase inhibitor), TPCK (chymotrypsin-proteinase inhibitor), and Leupeptin (as general proteinase inhibitor) were added to the reactions. Homogenates of larval fourth-gut tissue were prepared using the same methodology described for the enzyme activity test. The inhibitory test was conducted via a microplate assay, as reported previously. A series of inhibitor levels were prepared to determine the greatest inhibition activity. Concentrations of 0.01, 0.05, 0.1, and 1.0 mM leupeptin; 0.005, 0.01, 0.05, 0.1, and 1 mM TLCK and TPCK; 0.1, 1.0, 10, 50, and 100 mM PMSF; and 0.01, 0.05, 0.1, 1, and 2 mM iodoacetic acid, 100 mM; 1,10 phenanthroline, EDTA, and EGTA concentrations of 0.1, 1, 10, 50, and 100 mM.

[10] = tested on: trypsin proteinase of R. ferrugineus midgut; assay: Trypsin activity in midgut of treated larvae (in vivo); conditions: larvae treated 24 h, midgut preparation
Protocol: as §7, §5

[11] = molecular target: cysteine protease of R. ferrugineus midgut; assay: Cysteine proteinase activity (in vitro); type: biochemical, Rhynchophorus ferrugineus; conditions: 4th instar midgut homogenate
Protocol: (§3) Utilizing the substrate N-benzoyl-Phe-Val-Arg-p-nitroanilide hydrochloride and certain modifications, the cysteine proteinases of R. ferrugineus homogenate from the fourth midgut instar was tested for activity. Ten larvae of the fourth midgut were carefully taken out, dissected, and periodically washed with 0.9% (w/v) NaCl solution, assay buffer containing 50 mM HEPS, 5 mM DTT, and 0.1% Triton X-100 (v/v) (pH 8.0, 500 µL) was used to homogenize the samples. The homogenates were spun using a cooling Sigma 3k30 centrifuge for 30 min at 5000 rpm. […] Before introducing 100 µL of the substrate, 10 µL of the supernatant was incubated in assay buffer (60 µL, pH = 8) at 37 °C for 30 min. Enzyme samples in 10 µL were incubated for 10 min with iodoacetic acid before the addition of the substrate. […] The absorbance at 520 nm was measured after spinning the reaction for 6 min at 5000 rpm. The activity in the midgut was assayed at OD520.60 min^−1 mg^−1 of protein with an ELISA rapid reader.

[12] = tested on: cysteine protease of R. ferrugineus midgut; assay: Cysteine protease activity in midgut of treated larvae (in vivo); set-up: species or system Rhynchophorus ferrugineus; conditions: larvae treated 24 h, midgut preparation
Protocol: as §3

| Structure (SMILES) | IC50 total proteases (in vitro) [1] [µg/mL] | IC50 metalloprotease (in vitro) [2] [µg/mL] | IC50 total proteases (in vivo) [4] [µg/mL] | LC50 (R. ferrugineus adults) [µg/mL] | IC50 trypsin proteinase (in vitro) [7] [µg/mL] | LD50 (µg/Larvae) 95% CF [8] | LD50 ([8]; topical application) [µg/larva] | Effect on extracted gut proteases of the fourth larval instar [9] | other results |
| --- | --- | --- | --- | --- | --- | --- | --- | --- | --- |
| CC12CCC(CC1)C(C)(C)O2 [1,8-cineole] | 91.5 (≈ 593 µM) | 708.2 (≈ 4590 µM) | 193.1 (≈ 1250 µM) | 1430 (≈ 9240 µM) | 271.2 (≈ 1760 µM) | 13.9 (12.8–14.7) µg/Larvae | 13.9 | – | IC50 metalloprotease (in vivo) [3]: 1297.2 µg/mL (≈ 8410 µM); IC50 elastase (in vivo) [5]: 256.3 µg/mL (≈ 1660 µM); IC50 elastase (in vitro) [6]: 119.4 µg/mL (≈ 774 µM); LD50 [8]: 13.9 µg/larva |
| c1cnc2c(c1)ccc1cccnc12 [1,10 phenanthroline] | – | – | – | – | – | – | – | significantly inhibited | – |
| C=C/C(C)=C/CC=C(C)C [(E)-β-ocimene] | 207.4 (≈ 1520 µM) | 321.7 (≈ 2360 µM) | 273.2 (≈ 2010 µM) | 3010 (≈ 22100 µM) | 157.2 (≈ 1150 µM) | 31.2 (27.4–32.8) µg/Larvae | 31.2 | – | – |
| O=C(O)CN(CCN(CC(=O)O)CC(=O)O)CC(=O)O [EDTA] | – | – | – | – | – | – | – | significantly inhibited | – |
| O=C(O)CN(CCOCCOCCN(CC(=O)O)CC(=O)O)CC(=O)O [EGTA] | – | – | – | – | – | – | – | significantly inhibited | – |
| Cc1ccc(S(=O)(=O)N[C@@H](CCCCN)C(=O)CCl)cc1 [TLCK] | – | – | – | – | – | – | – | significantly inhibited | – |
| Cc1ccc(S(=O)(=O)N[C@@H](Cc2ccccc2)C(=O)CCl)cc1 [TPCK] | – | – | – | – | – | – | – | significantly inhibited | – |
| C=CCc1ccc(OC)cc1 [estragole] | 254.7 (≈ 1720 µM) | 627.8 (≈ 4240 µM) | 314.8 (≈ 2120 µM) | 3590 (≈ 24200 µM) | 257.5 (≈ 1740 µM) | – | – | – | IC50 metalloprotease (in vivo) [3]: 1014.1 µg/mL (≈ 6840 µM); IC50 trypsin proteinase (in vivo) [10]: 628.7 µg/mL (≈ 4240 µM) |
| C=CCc1ccc(O)c(OC)c1 [eugenol] | 97.6 (≈ 594 µM) | 478.6 (≈ 2910 µM) | 201.4 (≈ 1230 µM) | 1460 (≈ 8890 µM) | 247.2 (≈ 1510 µM) | 14.2 (13.1–15.4) µg/Larvae | 14.2 | – | IC50 cysteine protease (in vitro) [11]: 294.4 µg/mL (≈ 1790 µM); IC50 trypsin proteinase (in vivo) [10]: 612.8 µg/mL (≈ 3730 µM); IC50 elastase (in vivo) [5]: 346.8 µg/mL (≈ 2110 µM); IC50 elastase (in vitro) [6]: 165.7 µg/mL (≈ 1010 µM); IC50 cysteine protease (in vivo) [12]: 453.1 µg/mL (≈ 2760 µM); LD50 [8]: 14.2 µg/larva |
